# Measured values: patent publication US9738634B2, “Heterocyclic amide compound and herbicide” (SYNGENTA PARTICIPATIONS AG, priority 2013, dated 2017)
# Key:
# transplanted rice = test: Test Example 1: preemergent weed treatment in the submerged state, effect on crop; a: transplanted rice; type: in vivo; settings: treatment dosage 320 g/ha
# Method in brief: (§1)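 Pre-emergence paddy test: weed seeds sown in submerged alluvial soil (4 cm water), 2.5-leaf rice transplanted, water-diluted emulsion applied to water surface at sowing at stated g/ha. Scored at 3 weeks, greenhouse 25–30 °C.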
# redroot pigweed [1] = test: Test Example 3: weedkilling efficacy through soil treatment; L: redroot pigweed; type: in vivo; settings: treatment dosage 320 g/ha
# Method in brief: (§2)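 Crop and weed responses were judged three weeks after a uniform surface spray of the water-diluted emulsion at the given g/ha rate. Seeds sat beneath about 1.5 cm of sterilized diluvial soil, and boxes stood in a greenhouse at 25 to 30° C.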
# bulrush [2] = test: Test Example 1: weedkilling efficacy, preemergent weed treatment in the submerged state; B: bulrush; type: in vivo; settings: treatment dosage 320 g/ha
# Method in brief: as §1
# beet [3] = test: Test Example 3: soil treatment, effect on crop; f: beet; type: in vivo; settings: treatment dosage 320 g/ha
# Method in brief: as §2
# soybean [4] = test: Test Example 3: soil treatment, effect on crop; d: soybean; type: in vivo; settings: treatment dosage 320 g/ha
# Method in brief: as §2
# Italian ryegrass [5] = test: Test Example 3: weedkilling efficacy through soil treatment; I: Italian ryegrass; type: in vivo; settings: treatment dosage 320 g/ha
# Method in brief: as §2
# barnyard grass [6] = test: Test Example 2: weedkilling efficacy, growth period weed treatment in the submerged state; A: barnyard grass; type: in vivo; settings: treatment dosage 320 g/ha
# Method in brief: (§3)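 Seedlings at 1-2 leaves in 4 cm-deep submerged alluvial soil received emulsion formulations on the water surface, dosed per hectare; effects were judged 3 weeks on.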
# bulrush [7] = test: Test Example 2: weedkilling efficacy, growth period weed treatment in the submerged state; B: bulrush; type: in vivo; settings: treatment dosage 320 g/ha
# Method in brief: as §3
# birds-eye speedwell [8] = test: Test Example 4: weedkilling efficacy by foliar treatment; p: birds-eye speedwell; type: in vivo; settings: treatment dosage 320 g/ha
# Method in brief: (§4)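 Seeds are spot-sown into sterilized diluvial soil and covered with about 1.5 cm of soil. After 14 days' greenhouse growth at 25 to 30° C, plants are sprayed on stems and leaves with diluted emulsion at the stated g/ha rate, then scored at 3 weeks.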
# barnyard grass [9] = test: Test Example 1: weedkilling efficacy, preemergent weed treatment in the submerged state; A: barnyard grass; type: in vivo; settings: treatment dosage 320 g/ha
# Method in brief: as §1
# black-grass [10] = test: Test Example 3: weedkilling efficacy through soil treatment; H: black-grass; type: in vivo; settings: treatment dosage 320 g/ha
# Method in brief: as §2
# wheat [11] = test: Test Example 4: foliar treatment, effect on crop; e: wheat; type: in vivo; settings: treatment dosage 320 g/ha
# Method in brief: as §4
# directly sown rice [12] = test: Test Example 3: soil treatment, effect on crop; b: directly sown rice; type: in vivo; settings: treatment dosage 320 g/ha
# Method in brief: as §2
# barnyard grass [13] = test: Test Example 4: weedkilling efficacy by foliar treatment; F: barnyard grass; type: in vivo; settings: treatment dosage 320 g/ha
# Method in brief: as §4
# catchweed [14] = test: Test Example 3: weedkilling efficacy through soil treatment; O: catchweed; type: in vivo; settings: treatment dosage 320 g/ha
# Method in brief: as §2
# wild oat [15] = test: Test Example 3: weedkilling efficacy through soil treatment; G: wild oat; type: in vivo; settings: treatment dosage 320 g/ha
# Method in brief: as §2
# green foxtail [16] = test: Test Example 3: weedkilling efficacy through soil treatment; E: green foxtail; type: in vivo; settings: treatment dosage 320 g/ha
# Method in brief: as §2
# common wind-grass [17] = test: Test Example 3: weedkilling efficacy through soil treatment; J: common wind-grass; type: in vivo; settings: treatment dosage 320 g/ha
# Method in brief: as §2
# redroot pigweed [18] = test: Test Example 4: weedkilling efficacy by foliar treatment; L: redroot pigweed; type: in vivo; settings: treatment dosage 320 g/ha
# Method in brief: as §4
# Italian ryegrass [19] = test: Test Example 4: weedkilling efficacy by foliar treatment; I: Italian ryegrass; type: in vivo; settings: treatment dosage 320 g/ha
# Method in brief: as §4
# Indian mallow [20] = test: Test Example 4: weedkilling efficacy by foliar treatment; K: Indian mallow; type: in vivo; settings: treatment dosage 320 g/ha
# Method in brief: as §4
# corn [21] = test: Test Example 3: soil treatment, effect on crop; c: corn; type: in vivo; settings: treatment dosage 320 g/ha
# Method in brief: as §2
# corn [22] = test: Test Example 4: foliar treatment, effect on crop; c: corn; type: in vivo; settings: treatment dosage 320 g/ha
# Method in brief: as §4
# catchweed [23] = test: Test Example 4: weedkilling efficacy by foliar treatment; O: catchweed; type: in vivo; settings: treatment dosage 320 g/ha
# Method in brief: as §4
# crabgrass [24] = test: Test Example 4: weedkilling efficacy by foliar treatment; D: crabgrass; type: in vivo; settings: treatment dosage 320 g/ha
# Method in brief: as §4
# oval-leafed pondweed [25] = test: Test Example 2: weedkilling efficacy, growth period weed treatment in the submerged state; C: oval-leafed pondweed; type: in vivo; settings: treatment dosage 320 g/ha
# Method in brief: as §3
# oval-leafed pondweed [26] = test: Test Example 1: weedkilling efficacy, preemergent weed treatment in the submerged state; C: oval-leafed pondweed; type: in vivo; settings: treatment dosage 320 g/ha
# Method in brief: as §1
# beet [27] = test: Test Example 4: foliar treatment, effect on crop; f: beet; type: in vivo; settings: treatment dosage 320 g/ha
# Method in brief: as §4
# common wind-grass [28] = test: Test Example 4: weedkilling efficacy by foliar treatment; J: common wind-grass; type: in vivo; settings: treatment dosage 320 g/ha
# Method in brief: as §4
# barnyard grass [29] = test: Test Example 3: weedkilling efficacy through soil treatment; F: barnyard grass; type: in vivo; settings: treatment dosage 320 g/ha
# Method in brief: as §2
# Indian mallow [30] = test: Test Example 3: weedkilling efficacy through soil treatment; K: Indian mallow; type: in vivo; settings: treatment dosage 320 g/ha
# Method in brief: as §2
# wild oat [31] = test: Test Example 4: weedkilling efficacy by foliar treatment; G: wild oat; type: in vivo; settings: treatment dosage 320 g/ha
# Method in brief: as §4
# fig-leafed goosefoot [32] = test: Test Example 3: weedkilling efficacy through soil treatment; M: fig-leafed goosefoot; type: in vivo; settings: treatment dosage 320 g/ha
# Method in brief: as §2
# rapeseed [33] = test: Test Example 3: soil treatment, effect on crop; g: rapeseed; type: in vivo; settings: treatment dosage 320 g/ha
# Method in brief: as §2
# soybean [34] = test: Test Example 4: foliar treatment, effect on crop; d: soybean; type: in vivo; settings: treatment dosage 320 g/ha
# Method in brief: as §4
# chickweed [35] = test: Test Example 4: weedkilling efficacy by foliar treatment; N: chickweed; type: in vivo; settings: treatment dosage 320 g/ha
# Method in brief: as §4
# fig-leafed goosefoot [36] = test: Test Example 4: weedkilling efficacy by foliar treatment; M: fig-leafed goosefoot; type: in vivo; settings: treatment dosage 320 g/ha
# Method in brief: as §4
# chickweed [37] = test: Test Example 3: weedkilling efficacy through soil treatment; N: chickweed; type: in vivo; settings: treatment dosage 320 g/ha
# Method in brief: as §2
# crabgrass [38] = test: Test Example 3: weedkilling efficacy through soil treatment; D: crabgrass; type: in vivo; settings: treatment dosage 320 g/ha
# Method in brief: as §2
# green foxtail [39] = test: Test Example 4: weedkilling efficacy by foliar treatment; E: green foxtail; type: in vivo; settings: treatment dosage 320 g/ha
# Method in brief: as §4
# black-grass [40] = test: Test Example 4: weedkilling efficacy by foliar treatment; H: black-grass; type: in vivo; settings: treatment dosage 320 g/ha
# Method in brief: as §4
# wheat [41] = test: Test Example 3: soil treatment, effect on crop; e: wheat; type: in vivo; settings: treatment dosage 320 g/ha
# Method in brief: as §2
# directly sown rice [42] = test: Test Example 4: foliar treatment, effect on crop; b: directly sown rice; type: in vivo; settings: treatment dosage 320 g/ha
# Method in brief: as §4
# birds-eye speedwell [43] = test: Test Example 3: weedkilling efficacy through soil treatment; p: birds-eye speedwell; type: in vivo; settings: treatment dosage 320 g/ha
# Method in brief: as §2
# rapeseed [44] = test: Test Example 4: foliar treatment, effect on crop; g: rapeseed; type: in vivo; settings: treatment dosage 320 g/ha
# Method in brief: as §4
smiles,measurement,setting,value
"CCCN(C(=O)C(C)(C)N1COCN(c2ccccc2)C1=O)c1cc(C(F)(F)F)ccn1 [A-5-05, 2-methyl-2-(4-oxo-5-phenyl-1,3,5-oxadiazinan-3-yl)-N-propyl-N-[4-(trifluoromethyl)-pyridin-2-yl]propionamide]",melting point,,163 to 164 °C
"CCC1N=CSN1NC(=O)C(C)(C)N1COC(C)=C(c2ccsc2)C1=O (centres unmarked) [B-1-02, N-(3-ethyl-1,2,4-thiadiazol-2-yl)-2-methyl-2-[6-methyl-4-oxo-5-(thiophen-3-yl)-2H-1,3-oxazin-3(4H)-yl]propionamide]",melting point,,171 to 172 °C
CC1=C(c2ccccc2)C(=O)N(C(C)(C)C(=O)Nc2cc(C#N)ccn2)CO1 [B-2-62],a (transplanted rice) effect on crop grade,transplanted rice,"1 (weed kill ratio 5% or more, less than 20%)"
same,L (redroot pigweed) weedkilling efficacy grade,redroot pigweed [1],"2 (weed kill ratio 20% or more, less than 40%)"
same,B (bulrush) weedkilling efficacy grade,bulrush [2],"5 (weed kill ratio 90% or more, (practically complete withering))"
same,f (beet) effect on crop grade,beet [3],0 (weed kill ratio 5% or less (practically no effect))
same,d (soybean) effect on crop grade,soybean [4],0 (weed kill ratio 5% or less (practically no effect))
same,I (Italian ryegrass) weedkilling efficacy grade,Italian ryegrass [5],"4 (weed kill ratio 70% or more, less than 90%)"
same,A (barnyard grass) weedkilling efficacy grade,barnyard grass [6],"4 (weed kill ratio 70% or more, less than 90%)"
same,B (bulrush) weedkilling efficacy grade,bulrush [7],"3 (weed kill ratio 40% or more, less than 70%)"
same,P (birds-eye speedwell) weedkilling efficacy grade,birds-eye speedwell [8],"4 (weed kill ratio 70% or more, less than 90%)"
same,A (barnyard grass) weedkilling efficacy grade,barnyard grass [9],"5 (weed kill ratio 90% or more, (practically complete withering))"
same,H (black-grass) weedkilling efficacy grade,black-grass [10],"3 (weed kill ratio 40% or more, less than 70%)"
same,e (wheat) effect on crop grade,wheat [11],0 (weed kill ratio 5% or less (practically no effect))
same,b (directly sown rice) effect on crop grade,directly sown rice [12],0 (weed kill ratio 5% or less (practically no effect))
same,F (barnyard grass) weedkilling efficacy grade,barnyard grass [13],"3 (weed kill ratio 40% or more, less than 70%)"
same,O (catchweed) weedkilling efficacy grade,catchweed [14],0 (weed kill ratio 5% or less (practically no effect))
same,G (wild oat) weedkilling efficacy grade,wild oat [15],"3 (weed kill ratio 40% or more, less than 70%)"
same,E (green foxtail) weedkilling efficacy grade,green foxtail [16],"4 (weed kill ratio 70% or more, less than 90%)"
same,J (common wind-grass) weedkilling efficacy grade,common wind-grass [17],"5 (weed kill ratio 90% or more, (practically complete withering))"
same,L (redroot pigweed) weedkilling efficacy grade,redroot pigweed [18],"4 (weed kill ratio 70% or more, less than 90%)"
same,I (Italian ryegrass) weedkilling efficacy grade,Italian ryegrass [19],"2 (weed kill ratio 20% or more, less than 40%)"
same,K (Indian mallow) weedkilling efficacy grade,Indian mallow [20],"4 (weed kill ratio 70% or more, less than 90%)"
same,c (corn) effect on crop grade,corn [21],0 (weed kill ratio 5% or less (practically no effect))
same,c (corn) effect on crop grade,corn [22],0 (weed kill ratio 5% or less (practically no effect))
same,O (catchweed) weedkilling efficacy grade,catchweed [23],"1 (weed kill ratio 5% or more, less than 20%)"
same,D (crabgrass) weedkilling efficacy grade,crabgrass [24],"3 (weed kill ratio 40% or more, less than 70%)"
same,C (oval-leafed pondweed) weedkilling efficacy grade,oval-leafed pondweed [25],"5 (weed kill ratio 90% or more, (practically complete withering))"
same,C (oval-leafed pondweed) weedkilling efficacy grade,oval-leafed pondweed [26],"5 (weed kill ratio 90% or more, (practically complete withering))"
same,f (beet) effect on crop grade,beet [27],0 (weed kill ratio 5% or less (practically no effect))
same,J (common wind-grass) weedkilling efficacy grade,common wind-grass [28],"4 (weed kill ratio 70% or more, less than 90%)"
same,F (barnyard grass) weedkilling efficacy grade,barnyard grass [29],"3 (weed kill ratio 40% or more, less than 70%)"
same,K (Indian mallow) weedkilling efficacy grade,Indian mallow [30],0 (weed kill ratio 5% or less (practically no effect))
same,G (wild oat) weedkilling efficacy grade,wild oat [31],"1 (weed kill ratio 5% or more, less than 20%)"
same,M (fig-leafed goosefoot) weedkilling efficacy grade,fig-leafed goosefoot [32],"3 (weed kill ratio 40% or more, less than 70%)"
same,g (rapeseed) effect on crop grade,rapeseed [33],0 (weed kill ratio 5% or less (practically no effect))
same,d (soybean) effect on crop grade,soybean [34],0 (weed kill ratio 5% or less (practically no effect))
same,N (chickweed) weedkilling efficacy grade,chickweed [35],"2 (weed kill ratio 20% or more, less than 40%)"
same,M (fig-leafed goosefoot) weedkilling efficacy grade,fig-leafed goosefoot [36],"3 (weed kill ratio 40% or more, less than 70%)"
same,N (chickweed) weedkilling efficacy grade,chickweed [37],"3 (weed kill ratio 40% or more, less than 70%)"
same,D (crabgrass) weedkilling efficacy grade,crabgrass [38],"4 (weed kill ratio 70% or more, less than 90%)"
same,E (green foxtail) weedkilling efficacy grade,green foxtail [39],"3 (weed kill ratio 40% or more, less than 70%)"
same,H (black-grass) weedkilling efficacy grade,black-grass [40],"3 (weed kill ratio 40% or more, less than 70%)"
same,e (wheat) effect on crop grade,wheat [41],0 (weed kill ratio 5% or less (practically no effect))
same,b (directly sown rice) effect on crop grade,directly sown rice [42],0 (weed kill ratio 5% or less (practically no effect))
same,P (birds-eye speedwell) weedkilling efficacy grade,birds-eye speedwell [43],"4 (weed kill ratio 70% or more, less than 90%)"
same,g (rapeseed) effect on crop grade,rapeseed [44],"4 (weed kill ratio 70% or more, less than 90%)"
